Where a name gives a salt, the structure may show the parent alone.
Columns and labels:
Assay type in all cases: physicochemical
[1] = Thermogravimetric analysis (TGA) of OND
Procedure: Thermogravimetric analysis (TGA) was used to determine weight loss of OND due to dehydration. A weighed sample of OND was heated from 25° C. to 300° C. at a rate of 20° C./min in a platinum pan under an inert nitrogen atmosphere purge flowing at a rate of 20 ml per minute. Heating caused loss of 2 moles of loosely bound water from each mole of OND dihydrate.

[2] = Dynamic vapor sorption (DVS) of OND; conditions: 25 °C
Procedure: Dynamic vapor sorption (DVS) was then used to measure the weight loss of OND during an isotherm dehydration study. The DVS apparatus (Surface Measurement Systems, London, UK) was a commercially available water sorption apparatus, which allowed an OND sample to be weighed under defined temperature and humidity conditions. About 14 mg of OND was weighed onto an aluminum pan. The DVS apparatus was programmed to run from 0% to 90% relative humidity (RH) at increments of 10% RH and then again going from 90% back to 0% RH at decrements of 10% RH. The study was conducted at 25° C. and in triplicate. The accuracy of the DVS apparatus was ±1.0% for the RH and ±0.2° C. for the temperature.

[3] = Hot-stage microscopy (HSM) of OND; conditions: heated 35 to 150 °C at 2 °C/min in silicone oil
Procedure: Hot-stage microscopy (HSM) was used to capture images at different stages of OND transformation. A glass slide with a sample of a small amount of OND dispersed in silicone oil was inserted into a hot-stage system (FTIR 600, Linkam Scientific Instruments, Surrey, UK). The OND sample was examined while being heated from 35° C. to 150° C. at a constant rate of 2° C./min. A camera-mounted optical microscope (Cary 620 IR, Agilent Technologies, Santa Clara, Calif., USA) equipped with a hot-stage was used to capture images at different stages of the OND transformation.

[4] = DSC/FTIR compatibility and crystallinity of OND (Example 3); conditions: 1:1 ratio
From the text: Differential scanning calorimetry (Diamond DSC, Perkin Elmer Life and Analytical Sciences, 710 Bridgeport Ave., Conn., USA) equipped with Pyris manager software (Shelton, Conn., USA) and Fourier transform infrared spectroscopy (FTIR, Agilent Technologies Cary 660, Santa Clara, Calif.) were used to study the compatibility of OND with various polymeric carriers in 1:1 ratio in a dry granulation process carried out in a twin-screw extruder to provide granules used to produce extended release tablets. Samples were prepared by hermetically sealing approximately 3-5 mg of pure OND or powder mixture in aluminum pans, which were then heated over a temperature range of 40-250° C. at a linear heating rate of 10° C./min under an inert nitrogen atmosphere. An FTIR bench equipped with a […]® attenuated total reflection (Pike Technologies, Madison, Wis.) was used to generate mid-infrared spectra in the range of 4000-650 cm-1, which was fitted with a single bounce diamond coated ZnSe internal reflection element. […] Thus, the crystalline structure of OND was preserved in the granules.

## Cc1nccn1CC1CCc2c(c3ccccc3n2C)C1=O (stereo not drawn) [OND, Ondansetron HCl dihydrate]
[1]; TGA thermogram
  temperature range of dehydration event (TGA): 60-105 °C
[1]; heated from 60-105 °C, 20 °C/min, nitrogen
  weight lost (TGA): about 10%
[2]; RH increased beyond 20% up to 90%
  weight gain (DVS): 9.2%
[2]; RH increased from 0% to 10%
  weight gain (DVS): 2.67%
[2]; RH increased to 20%
  weight gain (DVS): 8.9%
[2]; at 0% RH
  weight loss (DVS): 9.5%
[2]; desorption, at 10% RH
  weight decrease (DVS): up to 4.44%
[3]
  temperature at which crystals started dehydration (HSM): 90 °C
[4]
  compatibility of OND with polymeric carriers: compatible
